A value given as a limit tells only on which side of the number the result lay.

Experimental findings from US8471005B2 (Cephalon, Inc., priority 2008, dated 2013) are described below.

Assay [1] addresses T1, ALK (Homo sapiens, UniProt Q9UM73).
T1 construct: host or cells: baculovirus expression system
The experiment in a line: ALK Kinase Assay (ELISA/TRF, PLC-γ substrate). It counts as biochemical. The conditions noted are these: ALK kinase inhibition, 1 μM ATP; read-out: ALK Potency. Put shortly: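 IC50 values derive from percent inhibition plotted against log10 compound concentration and fitted to a variable-slope sigmoidal equation. The underlying reaction used 30 ng/ml ALK acting on immobilized PLC-γ (10 μg/mL in TBS) at 37° C for 15 minutes, read with Eu-N1 PT66 antibody.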

The target in assay [2] is T2, JAK2 (Homo sapiens, UniProt O60674).
T2 construct: host or cells: baculovirus expression system
The experiment in a line: Recombinant Human JAK2 Kinase Assay (TRF). Format: biochemical. The conditions noted are these: JAK2 kinase inhibition, 0.2 μM ATP; read-out: JAK2 Potency. In outline:
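Baculovirus-expressed JAK2 (15 ng/ml) phosphorylated a biotinylated 15-mer peptide captured on Neutravidin, in 20 mM HEPES pH 7.2, 0.2 μM ATP, 1 mM MnCl2, 0.1% BSA, 2.5% DMSO final, 20 min at room temperature. Phosphoproduct detected by time-resolved fluorescence with Eu-N1-labelled PY100 antibody.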

T2 sequence (O60674 whole entry): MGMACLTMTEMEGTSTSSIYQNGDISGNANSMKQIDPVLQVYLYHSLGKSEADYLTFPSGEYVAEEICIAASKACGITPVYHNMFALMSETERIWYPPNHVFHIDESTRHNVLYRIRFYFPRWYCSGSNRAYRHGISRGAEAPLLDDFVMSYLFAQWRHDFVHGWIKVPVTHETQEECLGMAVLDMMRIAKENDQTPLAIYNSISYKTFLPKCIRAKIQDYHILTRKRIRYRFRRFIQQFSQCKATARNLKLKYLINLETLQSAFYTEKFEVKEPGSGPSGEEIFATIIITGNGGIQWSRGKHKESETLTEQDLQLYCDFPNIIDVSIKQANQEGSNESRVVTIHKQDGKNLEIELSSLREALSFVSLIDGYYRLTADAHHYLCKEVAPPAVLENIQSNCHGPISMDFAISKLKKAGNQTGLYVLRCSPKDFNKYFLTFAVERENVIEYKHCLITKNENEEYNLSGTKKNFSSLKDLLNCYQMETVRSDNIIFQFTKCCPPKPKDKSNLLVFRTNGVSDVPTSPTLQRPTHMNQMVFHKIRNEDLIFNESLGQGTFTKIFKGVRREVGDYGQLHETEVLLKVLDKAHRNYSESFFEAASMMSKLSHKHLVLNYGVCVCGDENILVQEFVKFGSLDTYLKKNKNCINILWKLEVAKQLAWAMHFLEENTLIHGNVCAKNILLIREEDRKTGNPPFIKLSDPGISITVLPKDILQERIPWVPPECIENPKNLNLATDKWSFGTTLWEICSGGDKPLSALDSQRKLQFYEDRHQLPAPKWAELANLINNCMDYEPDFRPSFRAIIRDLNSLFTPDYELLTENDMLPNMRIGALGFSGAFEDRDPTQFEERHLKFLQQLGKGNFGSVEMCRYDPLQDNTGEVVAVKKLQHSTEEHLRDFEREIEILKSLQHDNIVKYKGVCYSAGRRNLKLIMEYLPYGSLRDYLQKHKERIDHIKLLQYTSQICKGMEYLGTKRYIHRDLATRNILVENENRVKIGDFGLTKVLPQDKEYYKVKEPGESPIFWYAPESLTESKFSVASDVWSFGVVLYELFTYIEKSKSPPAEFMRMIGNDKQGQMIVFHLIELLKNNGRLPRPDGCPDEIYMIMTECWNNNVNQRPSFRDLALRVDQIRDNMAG
T1 sequence (Q9UM73 19-1620): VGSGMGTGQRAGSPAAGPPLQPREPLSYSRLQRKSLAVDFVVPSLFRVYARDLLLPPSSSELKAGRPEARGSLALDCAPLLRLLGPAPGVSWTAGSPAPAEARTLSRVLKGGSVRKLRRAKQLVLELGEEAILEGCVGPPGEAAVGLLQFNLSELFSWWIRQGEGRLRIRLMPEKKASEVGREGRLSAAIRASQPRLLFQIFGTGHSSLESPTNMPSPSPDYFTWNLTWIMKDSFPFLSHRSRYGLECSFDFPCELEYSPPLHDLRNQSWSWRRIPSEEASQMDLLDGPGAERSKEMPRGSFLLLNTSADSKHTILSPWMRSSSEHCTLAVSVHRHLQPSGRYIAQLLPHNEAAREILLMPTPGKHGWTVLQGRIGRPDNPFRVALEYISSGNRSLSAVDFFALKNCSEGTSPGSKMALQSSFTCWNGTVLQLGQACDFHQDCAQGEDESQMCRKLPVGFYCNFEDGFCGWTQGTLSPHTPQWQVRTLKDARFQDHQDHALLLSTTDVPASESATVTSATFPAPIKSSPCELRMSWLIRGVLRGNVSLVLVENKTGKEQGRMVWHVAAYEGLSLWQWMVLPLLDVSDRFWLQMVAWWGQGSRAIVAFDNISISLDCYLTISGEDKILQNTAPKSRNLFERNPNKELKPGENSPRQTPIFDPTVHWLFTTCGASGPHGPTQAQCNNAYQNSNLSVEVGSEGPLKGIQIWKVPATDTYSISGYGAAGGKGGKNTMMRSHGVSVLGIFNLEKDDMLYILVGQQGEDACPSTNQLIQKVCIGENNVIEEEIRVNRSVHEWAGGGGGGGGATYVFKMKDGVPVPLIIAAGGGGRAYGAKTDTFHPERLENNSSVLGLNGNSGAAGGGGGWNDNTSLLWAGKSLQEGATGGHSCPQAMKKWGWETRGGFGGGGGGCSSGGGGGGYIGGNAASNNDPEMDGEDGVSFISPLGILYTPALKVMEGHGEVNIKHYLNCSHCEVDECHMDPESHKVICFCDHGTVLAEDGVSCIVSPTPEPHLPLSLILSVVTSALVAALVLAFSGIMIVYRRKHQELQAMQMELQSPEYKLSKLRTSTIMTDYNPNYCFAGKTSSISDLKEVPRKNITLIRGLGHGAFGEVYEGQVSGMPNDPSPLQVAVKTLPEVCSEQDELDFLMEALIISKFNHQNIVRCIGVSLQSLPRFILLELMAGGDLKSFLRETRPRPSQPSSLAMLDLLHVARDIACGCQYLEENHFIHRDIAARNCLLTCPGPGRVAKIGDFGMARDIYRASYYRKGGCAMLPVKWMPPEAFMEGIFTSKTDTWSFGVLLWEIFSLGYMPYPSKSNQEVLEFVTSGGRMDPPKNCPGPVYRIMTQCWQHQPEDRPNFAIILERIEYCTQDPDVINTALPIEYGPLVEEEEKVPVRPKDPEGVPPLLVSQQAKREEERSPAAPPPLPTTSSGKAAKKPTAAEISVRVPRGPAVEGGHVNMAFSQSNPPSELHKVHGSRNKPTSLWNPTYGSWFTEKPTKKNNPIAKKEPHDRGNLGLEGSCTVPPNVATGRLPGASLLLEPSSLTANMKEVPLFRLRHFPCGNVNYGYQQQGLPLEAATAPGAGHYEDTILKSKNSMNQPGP

In the case of `COc1cc(N2CCC(N3CCN(S(C)(=O)=O)CC3)CC2)ccc1Nc1ncc2ccc(-c3ccccc3OC)n2n1` [Example 535, {4-[4-(4-Methanesulfonyl-piperazin-1-yl)-piperidin-1-yl]-2-methoxy-phenyl}-[7-(2-methoxy-phenyl)-pyrrolo[2,1-f][1,2,4]triazin-2-yl]-amine], the IC50 in assay [1] and in assay [2] was below 100 nM in each case.
Turning to `COCc1ccccc1-c1ccc2cnc(Nc3ccc(N4CCC(N5CCN(C)CC5)CC4)cc3OC)nn12` [Example 538, [7-(2-Methoxymethyl-phenyl)-pyrrolo[2,1-f][1,2,4]triazin-2-yl]-{2-methoxy-4-[4-(4-methyl-piperazin-1-yl)-piperidin-1-yl]-phenyl}-amine], the IC50 in assay [1] and in assay [2] was below 100 nM each time.
Consider `COc1cc(N2CCC(N3CCOCC3)CC2)c(C)cc1Nc1ncc2ccc(-c3ccccc3OC)n2n1` [Example 539], for which the IC50 in assay [1] and in assay [2] was below 100 nM in each case.
On to `COc1cc(N2CCC(N3CCOCC3)CC2)ccc1Nc1ncc2ccc(-c3ccccc3S(C)(=O)=O)n2n1` [Example 540, [7-(2-Methanesulfonyl-phenyl)-pyrrolo[2,1-f][1,2,4]triazin-2-yl]-[2-methoxy-4-(4-morpholin-4-yl-piperidin-1-yl)-phenyl]-amine], for which the IC50 in assay [1] and in assay [2] was 1000 to 10000 nM throughout.
For `COc1cc(N2CCN(C[C@H](C)O)CC2)ccc1Nc1ncc2ccc(-c3ccccc3S(C)(=O)=O)n2n1` [Example 541, (S)-1-(4-{4-[7-(2-Methanesulfonyl-phenyl)-pyrrolo[2,1-f][1,2,4]triazin-2-ylamino]-3-methoxy-phenyl}-piperazin-1-yl)-propan-2-ol], the values for the IC50 in assay [1] and in assay [2] were 100 to 1000 nM and 1000 to 10000 nM, respectively.
In the case of `COc1cc(N2CCC(N3CCOCC3)CC2)ccc1Nc1ncc2ccc(-c3c(OC)cccc3OC)n2n1` [Example 542, [7-(2,6-Dimethoxy-phenyl)-pyrrolo[2,1-f][1,2,4]triazin-2-yl]-[2-methoxy-4-(4-morpholin-4-yl-piperidin-1-yl)-phenyl]-amine], the IC50 in assay [1] lay within 100 to 1000 nM; in assay [2], 1000 to 10000 nM.
Regarding `COc1cc(N2CCN(C[C@H](C)O)CC2)ccc1Nc1ncc2ccc(-c3c(OC)cccc3OC)n2n1` [Example 543, (S)-1-(4-{4-[7-(2,6-Dimethoxy-phenyl)-pyrrolo[2,1-f][1,2,4]triazin-2-ylamino]-3-methoxy-phenyl}-piperazin-1-yl)-propan-2-ol], the values for the IC50 in assay [1] and in assay [2] were below 100 nM and 1000 to 10000 nM, respectively.
With `COc1cc(N2CCC(N3CCOCC3)CC2)ccc1Nc1ncc2ccc(-c3ccccc3[S+](C)[O-])n2n1` (centres unmarked) [Example 544, [7-(2-Methanesulfinyl-phenyl)-pyrrolo[2,1-f][1,2,4]triazin-2-yl]-[2-methoxy-4-(4-morpholin-4-yl-piperidin-1-yl)-phenyl]-amine], the IC50 in assay [1] and in assay [2] was 100 to 1000 nM each time.
`COc1cc(N2CCN(C[C@H](C)O)CC2)ccc1Nc1ncc2ccc(-c3ccccc3[S+](C)[O-])n2n1` (stereo partly drawn) [Example 545, (S)-1-(4-{4-[7-(2-Methanesulfinyl-phenyl)-pyrrolo[2,1-f][1,2,4]triazin-2-ylamino]-3-methoxy-phenyl}-piperazin-1-yl)-propan-2-ol]: the IC50 in assay [1] and in assay [2] was 100 to 1000 nM in each case.
On to `COc1cc(N2CCC(N3CCOCC3)CC2)ccc1Nc1ncc2ccc(-c3cccc4c3OCCO4)n2n1` [Example 546, [7-(2,3-Dihydro-1,4-benzodioxin-5-yl)-pyrrolo[2,1-f][1,2,4]triazin-2-yl]-[2-methoxy-4-(4-morpholin-4-yl-piperidin-1-yl)-phenyl]-amine], for which the IC50 in assay [1] and in assay [2] was below 100 nM throughout.
As to `COc1cc(N2CCN(C[C@H](C)O)CC2)ccc1Nc1ncc2ccc(-c3cccc4c3OCCO4)n2n1` [Example 547, (S)-1-(4-{4-[7-(2,3-Dihydro-1,4-benzodioxin-5-yl)-pyrrolo[2,1-f][1,2,4]triazin-2-ylamino]-3-methoxy-phenyl}-piperazin-1-yl)-propan-2-ol], the IC50 in assay [1] and in assay [2] was below 100 nM in each case.
In the case of `CN1CCN(c2ccc(Nc3ncc4ccc(-c5cccc6c5OCCO6)n4n3)cc2)CC1` [Example 548, [7-(2,3-Dihydro-1,4-benzodioxin-5-yl)-pyrrolo[2,1-f][1,2,4]triazin-2-yl]-[4-(4-methyl-piperazin-1-yl)-phenyl]-amine], the IC50 in assay [1] and in assay [2] was below 100 nM each time.
Consider `COc1cc(N2CCC(N3CCOCC3)CC2)ccc1Nc1ncc2ccc(-c3ccccc3CS(C)(=O)=O)n2n1` [Example 549, [7-(2-Methanesulfonylmethyl-phenyl)-pyrrolo[2,1-f][1,2,4]triazin-2-yl]-[2-methoxy-4-(4-morpholin-4-yl-piperidin-1-yl)-phenyl]-amine], for which the IC50 in assay [1] is 100 to 1000 nM; in assay [2], 1000 to 10000 nM.
`COc1cc(C2CCN(C[C@@H](O)CO)CC2)c(F)cc1Nc1ncc2ccc(-c3ccccc3OC)n2n1` [Example 550, (R)-3-(4-{2-Fluoro-5-methoxy-4-[7-(2-methoxy-phenyl)-pyrrolo[2,1-f][1,2,4]triazin-2-ylamino]-phenyl}-piperidin-1-yl)-propane-1,2-diol]: the IC50 in assay [1] was below 100 nM; in assay [2], 100 to 1000 nM.
For the molecule `COc1cc(C2CCN(C[C@@H](O)CO)CC2)c(F)cc1Nc1ncc2ccc(-c3ccccc3N(C)S(C)(=O)=O)n2n1` [Example 551, N-[2-(2-{4-[1-((R)-2,3-Dihydroxy-propyl)-piperidin-4-yl]-5-fluoro-2-methoxy-phenylamino}-pyrrolo[2,1-f][1,2,4]triazin-7-yl)-phenyl]-N-methyl-methanesulfonamide], the IC50 in assay [1] is below 100 nM; in assay [2], 1000 to 10000 nM.
The matching figures for `CC(C)(C)NS(=O)(=O)c1cccc(-c2ccc3cnc(Nc4ccc(N5CCOCC5)cc4)nn23)c1` [Example 561, N-tert-Butyl-3-[2-(4-morpholin-4-yl-phenylamino)-pyrrolo[2,1-f][1,2,4]triazin-7-yl]-benzenesulfonamide]: 100 to 1000 nM and below 100 nM.
As to `CC(C)(C)NS(=O)(=O)c1cccc(-c2ccc3cnc(Nc4ccc(N5CCC(N6CCNC(=O)C6)CC5)cc4)nn23)c1` [Example 562, N-tert-Butyl-3-(2-{4-[4-(3-oxo-piperazin-1-yl)-piperidin-1-yl]-phenylamino}-pyrrolo[2,1-f][1,2,4]triazin-7-yl)-benzenesulfonamide], the results for the IC50 in assay [1] and in assay [2] were 100 to 1000 nM and below 100 nM, respectively.
As to `CS(=O)(=O)c1cccc(-c2ccc3cnc(N4CCC(Oc5cccc(N)c5)CC4)nn23)c1` [Example 563, 3-{1-[7-(3-Methanesulfonyl-phenyl)-pyrrolo[2,1-f][1,2,4]triazin-2-yl]-piperdin-4-yloxy}-phenylamine], the IC50 was above 10000 nM in assay [1] and 1000 to 10000 nM in assay [2].
For `COc1ccccc1-c1ccc2cnc(Nc3ccc4oc(C)nc4c3)nn12` [Example 564, [7-(2-Methoxy-phenyl)-pyrrolo[2,1-f][1,2,4]triazin-2-yl]-(2-methyl-benzoxazol-5-yl)-amine], in that order: 100 to 1000 nM and below 100 nM.
For `CC(C)(C)NS(=O)(=O)c1cccc(-c2ccc3cnc(Nc4ccc(C5CCC(N6CCOCC6)CC5)cc4)nn23)c1` (centres unmarked) [Example 565, N-tert-Butyl-3-{2-[4-(4-morpholin-4-yl-cyclohexyl)-phenylamino]-pyrrolo[2,1-f][1,2,4]triazin-7-yl}-benzenesulfonamide], in that order: 100 to 1000 nM and below 100 nM.
With `CC(C)(C)NS(=O)(=O)c1cccc(-c2ccc3cnc(Nc4ccc(C5CCC(N6CCCC6)CC5)cc4)nn23)c1` (centres unmarked) [Example 566, N-tert-Butyl-3-{2-[4-(4-pyrrolidin-1-yl-cyclohexyl)-phenylamino]-pyrrolo[2,1-f][1,2,4]triazin-7-yl}-benzenesulfonamide], the results for the IC50 in assay [1] and in assay [2] were 100 to 1000 nM and below 100 nM, respectively.
Take `CN(C)C1CCC(c2ccc(Nc3ncc4ccc(-c5cccc(S(=O)(=O)NC(C)(C)C)c5)n4n3)cc2)CC1` (centres unmarked) [Example 567, N-tert-Butyl-3-{2-[4-(4-dimethylamino-cyclohexyl)-phenylamino]-pyrrolo[2,1-f][1,2,4]triazin-7-yl}-benzenesulfonamide]: the IC50 in assay [1] was 100 to 1000 nM; in assay [2], below 100 nM.
With `CC(C)(C)NS(=O)(=O)c1cccc(-c2ccc3cnc(Nc4ccc(C5CCC(O)CC5)cc4)nn23)c1` (centres unmarked) [Example 568, N-tert-Butyl-3-{2-[4-(4-hydroxy-cyclohexyl)-phenylamino]-pyrrolo[2,1-f][1,2,4]triazin-7-yl}-benzenesulfonamide], the IC50 was 100 to 1000 nM in assay [1] and below 100 nM in assay [2].
Regarding `CC(O)c1cccc(Nc2ncc3ccc(-c4cccc(S(=O)(=O)NC(C)(C)C)c4)n3n2)c1` (centres unmarked) [Example 569, N-tert-Butyl-3-{2-[3-(1-hydroxy-ethyl)-phenylamino]-pyrrolo[2,1-f][1,2,4]triazin-7-yl}-benzenesulfonamide], the results for the IC50 in assay [1] and in assay [2] were 100 to 1000 nM and below 100 nM, respectively.
For the molecule `CC(C)S(=O)(=O)c1cccc(-c2ccc3cnc(Nc4ccc(C5CCN(CC(N)=O)CC5)cc4)nn23)c1` [Example 570, 2-[4-(4-{7-[3-(Propane-2-sulfonyl)-phenyl]-pyrrolo[2,1-f][1,2,4]triazin-2-ylamino}-phenyl)-piperidin-1-yl]-acetamide], the IC50 in assay [1] is 100 to 1000 nM; in assay [2], below 100 nM.
